Assay results: patent publication US12391737B2, “Soluble NPY2 receptor agonists” (Boehringer Ingelheim International GmbH, priority 2020, dated 2025)
pKi: −log10 of the molar value. *1 amine or outer side, *2 acyl side, *3 side chain or, on linkers, in order; H or OH if unused. Where a SMILES comes first, the peptide text is derived from it. Side-chain parts run from the residue outwards. The star is where a group is joined. C18 diacid = O=C(O)CCCCCCCCCCCCCCCCC(=O)*; γGlu = O=C(O)[C@H](CCC(=O)[*:2])N[*:1]; Isovaleryl = CC(C)CC(=O)*; Ahx = NCCCCCC(=O)O

Columns and labels:
[1] = target: T1, Human Neuropeptide Y2 Receptor (Homo sapiens, UniProt P49146); experiment: Radioligand binding competition assay (RLB); conditions: Table 3, 125I-PYY(1-36) competition; read-out: Ki
T1 construct: purchased CHEMICON HTS066M
T1 sequence (P49146 1-381): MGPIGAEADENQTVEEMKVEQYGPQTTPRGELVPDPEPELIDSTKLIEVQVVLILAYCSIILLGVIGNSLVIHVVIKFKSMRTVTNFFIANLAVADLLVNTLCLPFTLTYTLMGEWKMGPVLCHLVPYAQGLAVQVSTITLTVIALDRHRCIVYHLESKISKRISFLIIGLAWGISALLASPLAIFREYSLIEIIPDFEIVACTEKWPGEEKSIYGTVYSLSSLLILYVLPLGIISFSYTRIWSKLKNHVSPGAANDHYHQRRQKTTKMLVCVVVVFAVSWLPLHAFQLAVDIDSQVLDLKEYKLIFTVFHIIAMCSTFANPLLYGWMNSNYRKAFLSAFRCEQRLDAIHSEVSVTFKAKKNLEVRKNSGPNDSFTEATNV
Method in brief: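 Peptides were serially diluted from 1 mM DMSO stocks and competed for radioligand binding to receptor membranes (0.5 μg/well) over 2 h at room temperature, pH 7.4 HEPES buffer. Bound radioactivity on filters was counted by scintillation, and IC50 was derived by nonlinear regression.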

Solubility determination = conditions: for Sol6: pH 6; for Sol7: pH 7
Method in brief: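 Shake-flask style: 10 mg/ml peptide (TFA salt), 0.1 M sodium diphosphate pH 6.4/7.0, 600 rpm, 2 h, RT; filter; dilute 1 mg/ml in 50% MeCN; RP-UPLC, 0–100% B over 2 min, 50 °C. Solubility = sample/control area ratio. Final pH recorded.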

Compound | pKi [1] | Sol6 (Solubility determination) | Sol7 (Solubility determination)
CC(C)CC(=O)N[C@@H](C)C(=O)N1CCC[C@H]1C(=O)N[C@@H](CCC(=O)O)C(=O)N[C@@H](CCCCNC(=O)CCCCCNC(=O)CC[C@H](NC(=O)CCCCCCCCCCCCCCCCC(=O)O)C(=O)O)C(=O)N1CCC[C@H]1C(=O)N[C@@H](CCC(=O)O)C(=O)N[C@@H](CCC(=O)O)C(=O)N[C@@H](CC(=O)O)C(=O)N1CCC[C@H]1C(=O)N[C@H](C(=O)N1CCC[C@H]1C(=O)N[C@@H](CCC(=O)O)C(=O)N[C@@H](CCC(=O)O)C(=O)N[C@@H](CC(C)C)C(=O)N[C@@H](CCC(N)=O)C(=O)N[C@@H](CCCNC(=N)N)C(=O)N[C@@H](Cc1ccc(O)cc1)C(=O)N[C@@H](Cc1ccc(O)cc1)C(=O)N[C@H](C(=O)N[C@@H](CO)C(=O)N[C@@H](CC(C)C)C(=O)N[C@@H](CCCNC(=N)N)C(=O)N[C@@H](Cc1c[nH]cn1)C(=O)N[C@@H](Cc1ccc(O)cc1)C(=O)N[C@@H](Cc1ccc(O)cc1)C(=O)N[C@@H](CC(N)=O)C(=O)N[C@@H](Cc1c[nH]c2ccccc12)C(=O)N[C@@H](CC(C)C)C(=O)N[C@H](C(=O)N[C@@H](CCCNC(=N)N)C(=O)N[C@@H](CCC(N)=O)C(=O)N[C@@H](CCCNC(=N)N)C(=O)N[C@@H](Cc1ccc(O)cc1)C(N)=O)[C@@H](C)O)C(C)C)[C@@H](C)O [Compound 22, N{alpha-4}-(3-methylbutanoyl)-N{epsilon-7}-(6-[(4S)-4-carboxy-4-(17-carboxyheptadecanamido)butanamido]hexanoyl)[4A,7K,9E,12P,13T,18Q,22V,28Y,30W,31L]-hPYY(4-36)] | 8.30 | 9.7 mg/mL | 9.8 mg/mL
CC(C)CC(=O)N[C@@H](C)C(=O)N1CCC[C@H]1C(=O)N[C@@H](CCC(=O)O)C(=O)N[C@@H](CCCCNC(=O)CCCCCNC(=O)CC[C@H](NC(=O)CCCCCCCCCCCCCCCCC(=O)O)C(=O)O)C(=O)N1CCC[C@H]1C(=O)N[C@@H](CCC(=O)O)C(=O)N[C@@H](CCC(=O)O)C(=O)N[C@@H](CC(=O)O)C(=O)N[C@@H](C)C(=O)N[C@@H](CO)C(=O)N1CCC[C@H]1C(=O)N[C@@H](CCC(=O)O)C(=O)N[C@@H](C)C(=O)N[C@@H](CC(C)C)C(=O)N[C@@H](CCC(N)=O)C(=O)N[C@@H](CCC(=O)O)C(=O)N[C@@H](Cc1ccc(O)cc1)C(=O)N[C@@H](Cc1ccc(O)cc1)C(=O)N[C@H](C(=O)N[C@@H](CO)C(=O)N[C@@H](CC(C)C)C(=O)N[C@@H](CCCNC(=N)N)C(=O)N[C@@H](Cc1c[nH]cn1)C(=O)N[C@@H](Cc1ccc(O)cc1)C(=O)N[C@@H](Cc1ccc(O)cc1)C(=O)N[C@@H](CC(N)=O)C(=O)N[C@@H](Cc1c[nH]c2ccccc12)C(=O)N[C@@H](CC(C)C)C(=O)N[C@H](C(=O)N[C@@H](CCCNC(=N)N)C(=O)N[C@@H](CCC(N)=O)C(=O)N[C@@H](CCCNC(=N)N)C(=O)N[C@@H](Cc1ccc(O)cc1)C(N)=O)[C@@H](C)O)C(C)C [Compound 39, N{alpha-4}-(3-methylbutanoyl)-N{epsilon-7}-(6-[(4S)-4-carboxy-4-(17-carboxyheptadecanamido)butanamido]hexanoyl)[4A,7K,9E,16A,18Q,19E,22V,28Y,30W,31L]-hPYY(4-36)] | 8.56 | 10.0 mg/mL | 10.0 mg/mL

More lines, now with the values ahead:

pKi [1] | Sol6 (Solubility determination) | Sol7 (Solubility determination) | Compound
8.81 | 0.0 mg/mL | 0.3 mg/mL | CC[C@H](C)[C@H](NC(=O)[C@H](Cc1ccc(O)cc1)NC(=O)[C@H](Cc1ccc(O)cc1)NC(=O)[C@H](CCCNC(=N)N)NC(=O)[C@H](CCC(N)=O)NC(=O)[C@H](CC(C)C)NC(=O)[C@H](CCC(=O)O)NC(=O)[C@H](CCC(=O)O)NC(=O)[C@@H]1CCCN1C(=O)[C@@H](NC(=O)[C@H](C)NC(=O)[C@H](C)NC(=O)[C@H](CCC(=O)O)NC(=O)[C@H](CCC(=O)O)NC(=O)[C@@H]1CCCN1C(=O)[C@H](CCCCNC(=O)CCCCCNC(=O)CC[C@H](NC(=O)CCCCCCCCCCCCCCCCC(=O)O)C(=O)O)NC(=O)[C@H](C)NC(=O)[C@@H]1CCCN1C(=O)[C@H](C)NC(=O)CC(C)C)[C@@H](C)O)C(=O)N[C@@H](CO)C(=O)N[C@@H](CC(C)C)C(=O)N[C@@H](CCCNC(=N)N)C(=O)N[C@@H](Cc1c[nH]cn1)C(=O)N[C@@H](Cc1ccc(O)cc1)C(=O)N[C@@H](Cc1ccc(O)cc1)C(=O)N[C@@H](CC(N)=O)C(=O)N[C@@H](Cc1c[nH]c2ccccc12)C(=O)N[C@@H](CC(C)C)C(=O)N[C@H](C(=O)N[C@@H](CCCNC(=N)N)C(=O)N[C@@H](CCC(N)=O)C(=O)N[C@@H](CCCNC(=N)N)C(=O)N[C@@H](Cc1ccc(O)cc1)C(N)=O)[C@@H](C)O [Compound 48, N{alpha-4}-(3-methylbutanoyl)-N{epsilon-7}-(6-[(4S)-4-carboxy-4-(17-carboxyheptadecanamido)butanamido]hexanoyl)-[4A,6A,7K,9E,11A,13T,18Q,22I,28Y,30W,31L]-hPYY(4-36)]
9.27 | 0.1 mg/mL | 9.5 mg/mL | CC(C)CC(=O)N[C@@H](C)C(=O)N1CCC[C@H]1C(=O)N[C@@H](CCC(=O)O)C(=O)N[C@@H](CCCCNC(=O)CCCCCNC(=O)CC[C@H](NC(=O)CCCCCCCCCCCCCCCCC(=O)O)C(=O)O)C(=O)N1CCC[C@H]1C(=O)N1CCC[C@H]1C(=O)N[C@@H](C)C(=O)N[C@@H](CC(=O)O)C(=O)N[C@@H](C)C(=O)N[C@@H](CO)C(=O)N1CCC[C@H]1C(=O)N[C@@H](CCC(=O)O)C(=O)N[C@@H](CCC(=O)O)C(=O)N[C@H](C(=O)N[C@@H](CCC(N)=O)C(=O)N[C@@H](CCCNC(=N)N)C(=O)N[C@@H](Cc1ccc(O)cc1)C(=O)N[C@@H](Cc1ccc(O)cc1)C(=O)N[C@H](C(=O)N[C@@H](CO)C(=O)N[C@@H](CC(C)C)C(=O)N[C@@H](CCCNC(=N)N)C(=O)N[C@@H](Cc1c[nH]cn1)C(=O)N[C@@H](Cc1ccc(O)cc1)C(=O)N[C@@H](Cc1ccc(O)cc1)C(=O)N[C@@H](CC(N)=O)C(=O)N[C@@H](Cc1c[nH]c2ccccc12)C(=O)N[C@@H](CC(C)C)C(=O)N[C@H](C(=O)N[C@@H](CCCNC(=N)N)C(=O)N[C@@H](CCC(N)=O)C(=O)N[C@@H](CCCNC(=N)N)C(=O)N[C@@H](Cc1ccc(O)cc1)C(N)=O)[C@@H](C)O)C(C)C)[C@@H](C)O [Compound 69, N{alpha-4}-(3-methylbutanoyl)-N{epsilon-7}-(6-[(4S)-4-carboxy-4-(17-carboxyheptadecanamido)butanamido]hexanoyl)-[4A,7K,9P,10A,17T,18Q,22V,28Y,30W,31L]-hPYY(4-36)] (Isovaleryl-APEK([Ahx-γGlu-C18 diacid])PPADASPEETQRYYVSLRHYYNWLTRQRY-NH2)
8.55 | 9.3 mg/mL | 9.2 mg/mL | CC[C@H](C)[C@H](NC(=O)[C@H](CCC(=O)O)NC(=O)[C@H](CCC(=O)O)NC(=O)[C@@H]1CCCN1C(=O)[C@@H](NC(=O)[C@H](C)NC(=O)[C@H](CC(=O)O)NC(=O)[C@H](CCC(=O)O)NC(=O)[C@H](CCC(=O)O)NC(=O)[C@@H]1CCCN1C(=O)[C@H](CCCCNC(=O)CCCCCNC(=O)CC[C@H](NC(=O)CCCCCCCCCCCCCCCCC(=O)O)C(=O)O)NC(=O)[C@H](CCC(=O)O)NC(=O)[C@@H]1CCCN1C(=O)[C@H](C)NC(=O)CC(C)C)[C@@H](C)O)C(=O)N[C@@H](CCC(N)=O)C(=O)N[C@@H](CCCNC(=N)N)C(=O)N[C@@H](Cc1ccc(O)cc1)C(=O)N[C@@H](Cc1ccc(O)cc1)C(=O)N[C@@H](CCC(N)=O)C(=O)N[C@@H](CO)C(=O)N[C@@H](CC(C)C)C(=O)N[C@@H](CCCNC(=N)N)C(=O)N[C@@H](Cc1c[nH]cn1)C(=O)N[C@@H](Cc1ccc(O)cc1)C(=O)N[C@@H](Cc1ccc(O)cc1)C(=O)N[C@@H](CC(N)=O)C(=O)N[C@@H](Cc1c[nH]c2ccccc12)C(=O)N[C@@H](CC(C)C)C(=O)N[C@H](C(=O)N[C@@H](CCCNC(=N)N)C(=O)N[C@@H](CCC(N)=O)C(=O)N[C@@H](CCCNC(=N)N)C(=O)N[C@@H](Cc1ccc(O)cc1)C(N)=O)[C@@H](C)O [Compound 164, N{alpha-4}-(3-methylbutanoyl)-N{epsilon-7}-(6-[(4S)-4-carboxy-4-(17-carboxyheptadecanamido)butanamido]hexanoyl)-[4A,7K,9E,13T,17I,18Q,22Q,28Y,30W,31L]-hPYY(4-36)]
